± gives the expanded uncertainty stated by the source.
Test: xn = mol fraction of the nth substance listed
Details: 298.15 K, Ring tensiometer

## CCOP(=O)([O-])OCC.CCn1cc[n+](CC)c1 [1,3-diethyl-1H-imidazol-3-ium diethyl phosphate] + CCO
x1 = 0.1
  surface tension liquid-gas: 22.6 ± 0.3 mN/m
x1 = 0.2
  surface tension liquid-gas: 23.4 ± 0.4 mN/m
x1 = 0.3
  surface tension liquid-gas: 24.6 ± 0.4 mN/m
x1 = 0.4
  surface tension liquid-gas: 26.3 ± 0.4 mN/m
x1 = 0.5
  surface tension liquid-gas: 27.8 ± 0.4 mN/m
x1 = 0.6
  surface tension liquid-gas: 29.6 ± 0.4 mN/m
x1 = 0.7
  surface tension liquid-gas: 31.1 ± 0.4 mN/m
x1 = 0.8
  surface tension liquid-gas: 32.5 ± 0.5 mN/m
x1 = 0.9
  surface tension liquid-gas: 34.1 ± 0.5 mN/m
x1 = 1
  surface tension liquid-gas: 35.5 ± 0.5 mN/m

## CCOP(=O)([O-])OCC.CCn1cc[n+](CC)c1 [1,3-diethyl-1H-imidazol-3-ium diethyl phosphate] + CO
x1 = 0.1
  surface tension liquid-gas: 26.4 ± 0.4 mN/m
x1 = 0.2
  surface tension liquid-gas: 28.6 ± 0.4 mN/m
x1 = 0.3
  surface tension liquid-gas: 30.3 ± 0.4 mN/m
x1 = 0.4
  surface tension liquid-gas: 31.6 ± 0.5 mN/m
x1 = 0.5
  surface tension liquid-gas: 33 ± 0.5 mN/m
x1 = 0.6
  surface tension liquid-gas: 34 ± 0.5 mN/m
x1 = 0.7
  surface tension liquid-gas: 34.4 ± 0.5 mN/m
x1 = 0.8
  surface tension liquid-gas: 36.1 ± 0.5 mN/m
x1 = 0.9
  surface tension liquid-gas: 35.9 ± 0.5 mN/m
x1 = 1
  surface tension liquid-gas: 35.5 ± 0.5 mN/m

## CCOP(=O)([O-])OCC.CCn1cc[n+](CC)c1 [1,3-diethyl-1H-imidazol-3-ium diethyl phosphate] + O
x1 = 0.1
  surface tension liquid-gas: 40.7 ± 0.7 mN/m
x1 = 0.2
  surface tension liquid-gas: 37.4 ± 0.5 mN/m
x1 = 0.3
  surface tension liquid-gas: 37.2 ± 0.5 mN/m
x1 = 0.4
  surface tension liquid-gas: 36.6 ± 0.5 mN/m
x1 = 0.5
  surface tension liquid-gas: 36.4 ± 0.5 mN/m
x1 = 0.6
  surface tension liquid-gas: 36.2 ± 0.5 mN/m
x1 = 0.7
  surface tension liquid-gas: 36 ± 0.5 mN/m
x1 = 0.8
  surface tension liquid-gas: 36.1 ± 0.5 mN/m
x1 = 0.9
  surface tension liquid-gas: 35.9 ± 0.5 mN/m
x1 = 1
  surface tension liquid-gas: 35.5 ± 0.5 mN/m

## COP(=O)([O-])OC.Cn1cc[n+](C)c1 [1,3-dimethylimidazolium dimethylphosphate] + CCO
x1 = 0.1
  surface tension liquid-gas: 23.2 ± 0.4 mN/m
x1 = 0.2
  surface tension liquid-gas: 24.5 ± 0.4 mN/m
x1 = 0.3
  surface tension liquid-gas: 26.1 ± 0.4 mN/m
x1 = 0.4
  surface tension liquid-gas: 28.2 ± 0.4 mN/m
x1 = 0.5
  surface tension liquid-gas: 30.5 ± 0.4 mN/m
x1 = 0.6
  surface tension liquid-gas: 32.7 ± 0.5 mN/m
x1 = 0.7
  surface tension liquid-gas: 35 ± 0.5 mN/m
x1 = 0.8
  surface tension liquid-gas: 37.5 ± 0.5 mN/m
x1 = 0.9
  surface tension liquid-gas: 41.4 ± 0.6 mN/m
x1 = 1
  surface tension liquid-gas: 48.4 ± 0.6 mN/m

## COP(=O)([O-])OC.Cn1cc[n+](C)c1 [1,3-dimethylimidazolium dimethylphosphate] + CO
x1 = 0.1
  surface tension liquid-gas: 26.9 ± 0.4 mN/m
x1 = 0.2
  surface tension liquid-gas: 30.4 ± 0.4 mN/m
x1 = 0.3
  surface tension liquid-gas: 33.1 ± 0.5 mN/m
x1 = 0.4
  surface tension liquid-gas: 35.7 ± 0.5 mN/m
x1 = 0.5
  surface tension liquid-gas: 38.1 ± 0.5 mN/m
x1 = 0.6
  surface tension liquid-gas: 40 ± 0.5 mN/m
x1 = 0.7
  surface tension liquid-gas: 41.6 ± 0.6 mN/m
x1 = 0.8
  surface tension liquid-gas: 43.6 ± 0.6 mN/m
x1 = 0.9
  surface tension liquid-gas: 46.2 ± 0.6 mN/m
x1 = 1
  surface tension liquid-gas: 48.4 ± 0.6 mN/m

## COP(=O)([O-])OC.Cn1cc[n+](C)c1 [1,3-dimethylimidazolium dimethylphosphate] + O
x1 = 0.02
  surface tension liquid-gas: 67 ± 0.9 mN/m
x1 = 0.04
  surface tension liquid-gas: 64.2 ± 0.9 mN/m
x1 = 0.08
  surface tension liquid-gas: 59.5 ± 0.8 mN/m
x1 = 0.1
  surface tension liquid-gas: 55.7 ± 0.8 mN/m
x1 = 0.12
  surface tension liquid-gas: 53.6 ± 0.7 mN/m
x1 = 0.14
  surface tension liquid-gas: 52.2 ± 0.7 mN/m
x1 = 0.2
  surface tension liquid-gas: 51.8 ± 0.7 mN/m
x1 = 0.3
  surface tension liquid-gas: 50.6 ± 0.7 mN/m
x1 = 0.4
  surface tension liquid-gas: 50 ± 0.7 mN/m
x1 = 0.5
  surface tension liquid-gas: 49.8 ± 0.7 mN/m
x1 = 0.6
  surface tension liquid-gas: 49.3 ± 0.7 mN/m
x1 = 0.7
  surface tension liquid-gas: 49.1 ± 0.7 mN/m
x1 = 0.8
  surface tension liquid-gas: 48.9 ± 0.7 mN/m
x1 = 0.9
  surface tension liquid-gas: 48.6 ± 0.6 mN/m
x1 = 1
  surface tension liquid-gas: 48.4 ± 0.6 mN/m

## CCCCn1cc[n+](CC)c1.CCOP(=O)([O-])OCC [1-butyl-3-ethyl-1H-imidazol-3-ium diethyl phosphate] + CCO
x1 = 0.1
  surface tension liquid-gas: 22.6 ± 0.3 mN/m
x1 = 0.2
  surface tension liquid-gas: 23.6 ± 0.4 mN/m
x1 = 0.3
  surface tension liquid-gas: 24.7 ± 0.4 mN/m
x1 = 0.4
  surface tension liquid-gas: 26.1 ± 0.4 mN/m
x1 = 0.5
  surface tension liquid-gas: 27.6 ± 0.4 mN/m
x1 = 0.6
  surface tension liquid-gas: 28.5 ± 0.4 mN/m
x1 = 0.7
  surface tension liquid-gas: 29.5 ± 0.4 mN/m
x1 = 0.8
  surface tension liquid-gas: 30.5 ± 0.4 mN/m
x1 = 0.9
  surface tension liquid-gas: 31.4 ± 0.4 mN/m
x1 = 1
  surface tension liquid-gas: 32.2 ± 0.5 mN/m

## CCCCn1cc[n+](CC)c1.CCOP(=O)([O-])OCC [1-butyl-3-ethyl-1H-imidazol-3-ium diethyl phosphate] + CO
x1 = 0.1
  surface tension liquid-gas: 26.1 ± 0.4 mN/m
x1 = 0.2
  surface tension liquid-gas: 28.4 ± 0.4 mN/m
x1 = 0.3
  surface tension liquid-gas: 29.8 ± 0.4 mN/m
x1 = 0.4
  surface tension liquid-gas: 30.6 ± 0.4 mN/m
x1 = 0.5
  surface tension liquid-gas: 30.9 ± 0.4 mN/m
x1 = 0.6
  surface tension liquid-gas: 31.1 ± 0.4 mN/m
x1 = 0.7
  surface tension liquid-gas: 31.4 ± 0.4 mN/m
x1 = 0.8
  surface tension liquid-gas: 32.3 ± 0.5 mN/m
x1 = 0.9
  surface tension liquid-gas: 32.2 ± 0.5 mN/m
x1 = 1
  surface tension liquid-gas: 32.2 ± 0.5 mN/m

## CCCCn1cc[n+](CC)c1.CCOP(=O)([O-])OCC [1-butyl-3-ethyl-1H-imidazol-3-ium diethyl phosphate] + O
x1 = 0.02
  surface tension liquid-gas: 47.4 ± 1.6 mN/m
x1 = 0.04
  surface tension liquid-gas: 42.4 ± 0.6 mN/m
x1 = 0.08
  surface tension liquid-gas: 37.8 ± 0.6 mN/m
x1 = 0.1
  surface tension liquid-gas: 35.9 ± 0.5 mN/m
x1 = 0.12
  surface tension liquid-gas: 35.5 ± 0.5 mN/m
x1 = 0.14
  surface tension liquid-gas: 35 ± 0.5 mN/m
x1 = 0.2
  surface tension liquid-gas: 33.1 ± 0.5 mN/m
x1 = 0.3
  surface tension liquid-gas: 32.9 ± 0.5 mN/m
x1 = 0.4
  surface tension liquid-gas: 32.8 ± 0.5 mN/m
x1 = 0.5
  surface tension liquid-gas: 32.6 ± 0.5 mN/m
x1 = 0.6
  surface tension liquid-gas: 32.5 ± 0.5 mN/m
x1 = 0.7
  surface tension liquid-gas: 32.3 ± 0.5 mN/m
x1 = 0.8
  surface tension liquid-gas: 32.3 ± 0.5 mN/m
x1 = 0.9
  surface tension liquid-gas: 32.2 ± 0.5 mN/m
x1 = 1
  surface tension liquid-gas: 32.2 ± 0.5 mN/m

## CCCCn1cc[n+](C)c1.COP(=O)([O-])OC [1-butyl-3-methyl-1H-imidazolium dimethylphosphate] + CCO
x1 = 0.1
  surface tension liquid-gas: 22.8 ± 0.3 mN/m
x1 = 0.2
  surface tension liquid-gas: 23.6 ± 0.4 mN/m
x1 = 0.3
  surface tension liquid-gas: 25 ± 0.4 mN/m
x1 = 0.4
  surface tension liquid-gas: 26.9 ± 0.4 mN/m
x1 = 0.5
  surface tension liquid-gas: 28.5 ± 0.4 mN/m
x1 = 0.6
  surface tension liquid-gas: 30.5 ± 0.4 mN/m
x1 = 0.7
  surface tension liquid-gas: 32.3 ± 0.5 mN/m
x1 = 0.8
  surface tension liquid-gas: 34 ± 0.5 mN/m
x1 = 0.9
  surface tension liquid-gas: 36 ± 0.5 mN/m
x1 = 1
  surface tension liquid-gas: 38 ± 0.5 mN/m

## CCCCn1cc[n+](C)c1.COP(=O)([O-])OC [1-butyl-3-methyl-1H-imidazolium dimethylphosphate] + CO
x1 = 0.1
  surface tension liquid-gas: 26.5 ± 0.4 mN/m
x1 = 0.2
  surface tension liquid-gas: 29.2 ± 0.4 mN/m
x1 = 0.3
  surface tension liquid-gas: 30.8 ± 0.4 mN/m
x1 = 0.4
  surface tension liquid-gas: 32.3 ± 0.5 mN/m
x1 = 0.5
  surface tension liquid-gas: 33.8 ± 0.5 mN/m
x1 = 0.6
  surface tension liquid-gas: 35.1 ± 0.5 mN/m
x1 = 0.7
  surface tension liquid-gas: 35.9 ± 0.5 mN/m
x1 = 0.8
  surface tension liquid-gas: 38 ± 0.5 mN/m
x1 = 0.9
  surface tension liquid-gas: 38.1 ± 0.5 mN/m
x1 = 1
  surface tension liquid-gas: 38 ± 0.5 mN/m

## CCCCn1cc[n+](C)c1.COP(=O)([O-])OC [1-butyl-3-methyl-1H-imidazolium dimethylphosphate] + O
x1 = 0.1
  surface tension liquid-gas: 42.1 ± 0.6 mN/m
x1 = 0.2
  surface tension liquid-gas: 40.9 ± 0.6 mN/m
x1 = 0.3
  surface tension liquid-gas: 40.2 ± 0.5 mN/m
x1 = 0.4
  surface tension liquid-gas: 39.4 ± 0.5 mN/m
x1 = 0.5
  surface tension liquid-gas: 38.8 ± 0.5 mN/m
x1 = 0.6
  surface tension liquid-gas: 38.3 ± 0.5 mN/m
x1 = 0.7
  surface tension liquid-gas: 38.2 ± 0.5 mN/m
x1 = 0.8
  surface tension liquid-gas: 38 ± 0.5 mN/m
x1 = 0.9
  surface tension liquid-gas: 38.1 ± 0.5 mN/m
x1 = 1
  surface tension liquid-gas: 38 ± 0.5 mN/m

## CCCCOP(=O)([O-])OCCCC.CCCCn1cc[n+](C)c1 [1-butyl-3-methylimidazolium dibutyl phosphate] + CCO
x1 = 0.1
  surface tension liquid-gas: 22.5 ± 0.3 mN/m
x1 = 0.2
  surface tension liquid-gas: 23.5 ± 0.4 mN/m
x1 = 0.3
  surface tension liquid-gas: 24.5 ± 0.4 mN/m
x1 = 0.4
  surface tension liquid-gas: 25.9 ± 0.4 mN/m
x1 = 0.5
  surface tension liquid-gas: 26.6 ± 0.4 mN/m
x1 = 0.6
  surface tension liquid-gas: 27.3 ± 0.4 mN/m
x1 = 0.7
  surface tension liquid-gas: 27.8 ± 0.4 mN/m
x1 = 0.8
  surface tension liquid-gas: 28.3 ± 0.4 mN/m
x1 = 0.9
  surface tension liquid-gas: 28.8 ± 0.4 mN/m
x1 = 1
  surface tension liquid-gas: 29.4 ± 0.4 mN/m

## CCCCOP(=O)([O-])OCCCC.CCCCn1cc[n+](C)c1 [1-butyl-3-methylimidazolium dibutyl phosphate] + CO
x1 = 0.1
  surface tension liquid-gas: 26.4 ± 0.4 mN/m
x1 = 0.2
  surface tension liquid-gas: 27.5 ± 0.4 mN/m
x1 = 0.3
  surface tension liquid-gas: 28.1 ± 0.4 mN/m
x1 = 0.4
  surface tension liquid-gas: 28.5 ± 0.4 mN/m
x1 = 0.5
  surface tension liquid-gas: 28.8 ± 0.4 mN/m
x1 = 0.6
  surface tension liquid-gas: 28.9 ± 0.4 mN/m
x1 = 0.7
  surface tension liquid-gas: 29.1 ± 0.4 mN/m
x1 = 0.8
  surface tension liquid-gas: 29.4 ± 0.4 mN/m
x1 = 0.9
  surface tension liquid-gas: 29.5 ± 0.4 mN/m
x1 = 1
  surface tension liquid-gas: 29.4 ± 0.4 mN/m

## CCCCOP(=O)([O-])OCCCC.CCCCn1cc[n+](C)c1 [1-butyl-3-methylimidazolium dibutyl phosphate] + O
x1 = 0.1
  surface tension liquid-gas: 28.2 ± 0.6 mN/m
x1 = 0.2
  surface tension liquid-gas: 28.9 ± 0.4 mN/m
x1 = 0.3
  surface tension liquid-gas: 29 ± 0.4 mN/m
x1 = 0.4
  surface tension liquid-gas: 29.1 ± 0.4 mN/m
x1 = 0.5
  surface tension liquid-gas: 29.2 ± 0.4 mN/m
x1 = 0.6
  surface tension liquid-gas: 29.3 ± 0.4 mN/m
x1 = 0.7
  surface tension liquid-gas: 29.3 ± 0.4 mN/m
x1 = 0.8
  surface tension liquid-gas: 29.4 ± 0.4 mN/m
x1 = 0.9
  surface tension liquid-gas: 29.5 ± 0.4 mN/m
x1 = 1
  surface tension liquid-gas: 29.4 ± 0.4 mN/m

From the NIST ThermoML archive (doi:10.1021/je400004j)
